Experimental data reported in patent US7202085B2, “Control of gene expression in eukaryotic cells” (Calgene LLC, priority 1999, dated 2007).
Several values for one entry are separate records, joined by “and”; a condition that tells them apart may be missing. Equal entries are not always repeated. Where two headings read alike, the source gives them in different places.

How the values were obtained:
tra box-GUS reporter = test system: tra box-GUS reporter
Method: Plasmids for transfection were isolated and purified using Megaprep plasmid DNA isolation kit (Qiagen). Carrot protoplasts for transfections were prepared from carrot cell suspension culture and transfected with purified DNA as described (Ulmasov et al., Plant Cell 7:1611–1623, 1995). Briefly, 10 μg of the reporter plasmid and 5 μg of the effector plasmid were incubated with 10^6 protoplasts for five minutes at the room temperature in the presence of polyethylene glycol-calcium solution. After diluting approximately 10-fold with the culture medium, the protoplasts were incubated in the dark for 36 hours either in the presence or absence of the inducer 3-oxohexanoyl-homoserine lactone (OHHL, racemic mixture of the L- and D-isomers, purchased from Sigma Chemical Co., St Louis, Mo.). After incubation, protoplasts were collected by low-speed centrifugation, lysed and the level of GUS activity was measured using fluorometric GUS assay (Jefferson et al., EMBO J. 6:3901–3907, 1987).
Ten μg of the reporter plasmid (pMON53031), and indicated amount of the 35S effector plasmid per reaction was used for transfection in triplicate. […] The “− inducer” and “+ inducer” columns are averages of the GUS activities.
These constructs were tested for background GUS activity and TraR responsiveness in carrot protoplasts.

VP16-TraR [1] = test system: VP16-TraR
Method: Transgenic Arabidopsis plants containing TraA8(3×)-GUS reporter and 35S-VP16-TraR activator genes (pMON53077) were analyzed for induction of GUS activity. […] GUS assays were conducted as described by Jefferson et al. (supra).
In addition, detached leaves incubated for 24 hours in MS medium with or without 100 μM HSL were visualized for induction of GUS activity after staining.

TraR = molecular target: T1, TraR (Agrobacterium tumefaciens, UniProt P33905); test: β-galactosidase reporter assay in yeast (TraA8 element, galactose-inducible TraR); assay type: cell-based; details: strain YPH499, c1.5 and 6, 3 copies of TraA8 element; 5 hrs growth on galactose; 50 μM C8-HSL
T1 construct: expressed in transfected cells; host or cells: Saccharomyces cerevisiae (strain 204142; YPH499)

VP16-TraR [2] = test: Transient GUS reporter assay in carrot protoplasts with VP16-TraR effector and tra box reporter; assay type: cell-based, Agrobacterium tumefaciens; parameters: 4, 5, 6 (replicate GUS activities, +inducer): unit not given here
[3] = Table 7 lane 4: TraA8(3X), cl.4(60 μg) + CAT, 12.5 μM C8-AHL
[4] = Table 7 lane 6: TraA8(3X), cl.4(60 μg) +TraM, 12.5 μM C8-AHL
[5] = Table 7 lane 7: TraA8(3X), cl.4(60 μg) +TraS, 12.5 μM C8-AHL
[6] = Table 8 lane 2: TraA8(4X) +CAT, 25 μM C8-HSL
[7] = Table 6 lane 20: TraA9(3X), cl.8 +HA-VP16-TraR, 12.5 μM C8-AHL

T1 sequence (P33905 whole entry): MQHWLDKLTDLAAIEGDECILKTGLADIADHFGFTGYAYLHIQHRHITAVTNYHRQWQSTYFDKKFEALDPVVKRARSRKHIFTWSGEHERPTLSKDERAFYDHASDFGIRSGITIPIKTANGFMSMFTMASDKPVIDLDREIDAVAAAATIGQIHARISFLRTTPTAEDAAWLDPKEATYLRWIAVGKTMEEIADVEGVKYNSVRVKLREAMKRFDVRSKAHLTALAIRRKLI

SMILES: CCCCCC(=O)CC(=O)N[C@H]1CCOC1=O [C8-HSL, 3-oxooctanoyl-L-homoserine lactone]
- 4, 5, 6 (replicate GUS activities, +inducer) (tra box-GUS reporter; [3]): 76.6 and 75.1 and 58.1
- +inducer (average GUS activity) (tra box-GUS reporter; [3]): 70.0
- 4, 5, 6 (replicate GUS activities, +inducer) (tra box-GUS reporter; [4]): 105.0 and 102.1 and 86.8
- +inducer (average GUS activity) (tra box-GUS reporter; [4]): 98.0
- 4, 5, 6 (replicate GUS activities, +inducer) (tra box-GUS reporter; [5]): 143.6 and 128.8 and 134.8
- +inducer (average GUS activity) (tra box-GUS reporter; [5]): 135.7
- 4, 5, 6 (replicate GUS activities, +inducer) (tra box-GUS reporter; [6]): 1101.9 and 791.0 and 1071.3
- +inducer (average GUS activity) (tra box-GUS reporter; [6]): 988.1
- histochemical GUS staining (VP16-TraR [1]; detached caulline leaves, 24 hours in MS medium, 100 μM HSL): uniform induced activity
- +Inducer (GUS activity) (VP16-TraR [1]; plant s3553-1): 556.56
- +Inducer (GUS activity) (VP16-TraR [1]; plant s3553-2): 554.08
- +Inducer (GUS activity) (VP16-TraR [1]; plant s3554-1): 3101.09
- +Inducer (GUS activity) (VP16-TraR [1]; plant s3554-2): 3098.61
- +Inducer (GUS activity) (VP16-TraR [1]; plant s3559-1): 599.93
- +Inducer (GUS activity) (VP16-TraR [1]; plant s3559-2): 597.45
- +Inducer (GUS activity) (VP16-TraR [1]; plant s3562-1): 75.93
- +Inducer (GUS activity) (VP16-TraR [1]; plant s3562-2): 73.45
- +Inducer (GUS activity) (VP16-TraR [1]; plant s3570-1): 4831.21
- +Inducer (GUS activity) (VP16-TraR [1]; plant s3570-2): 4828.73
- +Inducer (GUS activity) (VP16-TraR [1]; plant s3573-1): 768.65
- +Inducer (GUS activity) (VP16-TraR [1]; plant s3573-2): 766.17
- +Inducer (GUS activity) (VP16-TraR [1]; plant s3575-1): 3453.00
- +Inducer (GUS activity) (VP16-TraR [1]; plant s3575-2): 3450.52
- +Inducer (GUS activity) (VP16-TraR [1]; plant s3582-1): 559.86
- +Inducer (GUS activity) (VP16-TraR [1]; plant s3582-2): 557.38
- +Inducer (GUS activity) (VP16-TraR [1]; plant s3594-1): 515.77
- +Inducer (GUS activity) (VP16-TraR [1]; plant s3594-2): 513.29
- +Inducer (GUS activity) (VP16-TraR [1]; plant wild-type): 2.48
- β-gal activity (chemiluminescent assay) (TraR): strong induction
- 4, 5, 6 (replicate GUS activities, +inducer) (VP16-TraR [2]; Table 5 lane 2: tra box (6X), cl.7 +HA-VP16-TraR, 12.5 μM C8-AHL): 933.8 and 1033.2 and 995.1
- 4, 5, 6 (replicate GUS activities, +inducer) (VP16-TraR [2]; Table 5 lane 4: traA1(3X), cl.35 +HA-VP16-TraR, 12.5 μM C8-AHL): 1896.4 and 1959.7 and 1968.4
- 4, 5, 6 (replicate GUS activities, +inducer) (VP16-TraR [2]; Table 5 lane 6: traA2(3X), cl.43 +HA-VP16-TraR, 12.5 μM C8-AHL): 2198.3 and 2341.9 and 2304.6
- 4, 5, 6 (replicate GUS activities, +inducer) (VP16-TraR [2]; Table 5 lane 8: traA3(3X), cl.4 +HA-VP16-TraR, 12.5 μM C8-AHL): 117.3 and 111.1
- 4, 5, 6 (replicate GUS activities, +inducer) (VP16-TraR [2]; Table 5 lane 10: traA4(3X), cl.23 +HA-VP16-TraR, 12.5 μM C8-AHL): 142.9 and 112.2 and 113.5
- 4, 5, 6 (replicate GUS activities, +inducer) (VP16-TraR [2]; Table 5 lane 12: traA5(3X), cl.2 +HA-VP16-TraR, 12.5 μM C8-AHL): 21.3 and 18.5 and 21.8
- 4, 5, 6 (replicate GUS activities, +inducer) (VP16-TraR [2]; Table 5 lane 14: traA6(3X), cl.21 +HA-VP16-TraR, 12.5 μM C8-AHL): 64.8 and 64.7
- 4, 5, 6 (replicate GUS activities, +inducer) (VP16-TraR [2]; Table 5 lane 16: traA7(3X), cl.15 +HA-VP16-TraR, 12.5 μM C8-AHL): 237.5 and 226.8 and 240.1
- 4, 5, 6 (replicate GUS activities, +inducer) (VP16-TraR [2]; Table 5 lane 18: traA8(3X), cl.4 +HA-VP16-TraR, 12.5 μM C8-AHL): 828.8 and 874.3 and 960.9
- 4, 5, 6 (replicate GUS activities, +inducer) (VP16-TraR [2]; Table 5 lane 20: traA9(3X), cl.8 +HA-VP16-TraR, 12.5 μM C8-AHL): 65.4 and 65.3 and 60.5
- 4, 5, 6 (replicate GUS activities, +inducer) (VP16-TraR [2]; Table 6 lane 2: Tra box(3X), cl.5 +HA-VP16-TraR, 12.5 μM C8-AHL): 1350.6 and 1542.2 and 1835.6
- 4, 5, 6 (replicate GUS activities, +inducer) (VP16-TraR [2]; Table 6 lane 4: TraA1(3X), cl.35 +HA-VP16-TraR, 12.5 μM C8-AHL): 1426.4 and 1490.9 and 1763.9
- 4, 5, 6 (replicate GUS activities, +inducer) (VP16-TraR [2]; Table 6 lane 6: TraA2(3X), cl.43 +HA-VP16-TraR, 12.5 μM C8-AHL): 1757.9 and 2255.2 and 2158.0
- 4, 5, 6 (replicate GUS activities, +inducer) (VP16-TraR [2]; Table 6 lane 8: TraA3(3X), cl.4 +HA-VP16-TraR, 12.5 μM C8-AHL): 106.3 and 96.1
- 4, 5, 6 (replicate GUS activities, +inducer) (VP16-TraR [2]; Table 6 lane 10: TraA4(3X), cl.23 +HA-VP16-TraR, 12.5 μM C8-AHL): 108.1 and 108.3 and 112.6
- 4, 5, 6 (replicate GUS activities, +inducer) (VP16-TraR [2]; Table 6 lane 12: TraA5(3X), cl.2 +HA-VP16-TraR, 12.5 μM C8-AHL): 91.6 and 72.7 and 82.6
- 4, 5, 6 (replicate GUS activities, +inducer) (VP16-TraR [2]; Table 6 lane 14: TraA6(3X), cl.21 +HA-VP16-TraR, 12.5 μM C8-AHL): 1.4 and 1.9 and 6.3
- 4, 5, 6 (replicate GUS activities, +inducer) (VP16-TraR [2]; Table 6 lane 16: TraA7(3X), cl.15 +HA-VP16-TraR, 12.5 μM C8-AHL): 216.9 and 217.5 and 275.9
- 4, 5, 6 (replicate GUS activities, +inducer) (VP16-TraR [2]; Table 6 lane 18: TraA8(3X), cl.4 +HA-VP16-TraR, 12.5 μM C8-AHL): 1774.0 and 1839.9 and 1663.3
- 4, 5, 6 (replicate GUS activities, +inducer) (VP16-TraR [2]; [7]): 307.2 and 197.9 and 183.9
- +inducer (average GUS activity) (VP16-TraR [2]; [7]): 229.7
- 4, 5, 6 (replicate GUS activities, +inducer) (VP16-TraR [2]; Table 6 lane 22: TraA10(3X), cl.17 +HA-VP16-TraR, 12.5 μM C8-AHL): 621.1 and 629.5 and 672.7
- 4, 5, 6 (replicate GUS activities, +inducer) (VP16-TraR [2]; Table 6 lane 24: TraA-1(3X), cl.14 +HA-VP16-TraR, 12.5 μM C8-AHL): 25.0 and 30.0
- 4, 5, 6 (replicate GUS activities, +inducer) (VP16-TraR [2]; Table 7 lane 3: TraA8(4X), cl.16 +HA-VP16-TraR, 12.5 μM C8-AHL): 1190.9 and 991.1 and 863.8
- 4, 5, 6 (replicate GUS activities, +inducer) (VP16-TraR [2]; Table 7 lane 5: TraA8(3X), cl.4(60 μg) +TraR, 12.5 μM C8-AHL): 1867.2 and 1559.0 and 1569.7
- 4, 5, 6 (replicate GUS activities, +inducer) (VP16-TraR [2]; Table 7 lane 8: TraA8(3X), cl.4(25 μg) + TraR + TraM, 12.5 μM C8-AHL): 13.5 and 9.6 and 12.1
- 4, 5, 6 (replicate GUS activities, +inducer) (VP16-TraR [2]; Table 7 lane 9: TraA8(3X), cl.4 (25 μg) + TraR + TraS, 12.5 μM C8-AHL): 279.4 and 224.4 and 241.0
- 4, 5, 6 (replicate GUS activities, +inducer) (VP16-TraR [2]; Table 7 lane 10: TraA8(3X), cl.4 (25 μg) + TraR + CAT, 12.5 μM C8-AHL): 698.2 and 680.1 and 908.4
- 4, 5, 6 (replicate GUS activities, +inducer) (VP16-TraR [2]; Table 8 lane 3: TraA8(4X) +TraR, 25 μM (row 0/25 μM)): 7034.5 and 8005.8 and 7531.5
